Experimental findings from patent US20050222135A1, “Active substance combination” (priority 2004, published 2005) are described below.

In this series the test system is male Swiss albino mice. The note with it: 30 minute period after 2 mg/kg naloxone i.v.; Morphine 5 mg/kg/day s.c. over 4 days, Cizolirtine (as citrate) 40 mg/kg/day i.p. As to the method:
Pharmacodyn. 1971, 190, pages 213-218 in male Swiss albino mice (weight 20-25 g, Harlan Iberica, S. Feliu de Codinas, Barcelona, Spain).
Withdrawal symptoms are then induced by the intravenous administration of a suitable opioid antagonist in a dose known to those skilled in the art, for example, 2 mg/kg naloxone in case of morphine, 30 minutes after the administration of the final dose of the opioid is completed.
After the administration of 2 mg/kg naloxone 30 minutes after the administration of the final dose of the active substance combination has been completed, the mice are closely watched for withdrawal symptoms, namely jumps and shakes (of the wet dog shake type), which are then counted and registered.

Take `CN1CC[C@]23c4c5ccc(O)c4O[C@H]2[C@@H](O)C=C[C@H]3[C@H]1C5` [Morphine]: the Number of jumps came to 6.6.
